US20090215742A1, “AMIDE […]” (PFIZER, INC., priority 2005, published 2009)

Target: T1, HSP-90 (Homo sapiens, UniProt P07900)
T1 construct: fused on or other part: 6-His tag at the C-terminus
Assay: HSP-90 SPA (scintillation proximity assay) competition binding assay, displacement of tritiated propyl-Geldanamycin
Details: for inhibition at 1 µM: read-out: % inhibition @ 1 μM; for inhibition at 10 µM: read-out: % inhibition @ 10 μM
Protocol: Compounds of the present invention were evaluated for potency against HSP-90 using a SPA (scintillation proximity assay) competition binding assay. Briefly, either full length or N-terminal HSP-90 that contains a 6-His tag on its C-terminus binds to copper on Yttrium-silicate scintillant beads via the His-tag. Tritiated propyl-Geldanamycin (pGA), whose structure is shown below, is an analog of a natural inhibitor of HSP-90 called Geldanamycin.
Tritiated pGA, which contains a tritiated propyl-amine group added at the #17 position, binds HSP-90 and brings the isotope into proximity with the beads. […] The beta signal emitted from the isotope excites the scintillant, which creates a measurable signal. As competitive compounds are added to the assay mixture, they compete with bound tritiated pGA at the ATP-binding site on the N-terminal of HSP-90. When a compound displaces the labeled pGA, the signal is reduced (the beta-particles are no longer in proximity with the bead). This reduction in signal is used to quantify the extent to which the inhibitor/compound is competitive with pGA.
Typical reaction solutions contained 30 nM HSP-90 and 200 nM ^3H-pGA in binding buffer (100 mM Hepes, pH 7.5 and 150 mM KCl). […] Inhibitors were added to the HSP-90/^3H-pGA solutions at eleven different concentrations for Ki determinations. […] To determine percent inhibition, the compound was tested at 1 and 10 μM. The final DMSO in the samples was 4%. Copper-Ysi beads (Amersham, #RPNQ0096) that have been diluted in binding buffer were added to each well to give a final concentration of 100 μg/well. The plates were sealed, covered with a foil-covered lid and shaken for 30 minutes at room temperature. The beads were allowed to settle for 30 minutes after which the plates were counted using a Packard TopCount NXT instrument. This procedure has also been adapted for medium throughput using a Beckman Biomek FX. Samples were run in duplicate and on two separate days to assure an accurate value of Ki.
For Ki determinations, the corrected cpm's (actual cpm's minus background) were plotted vs. inhibitor concentration using GraphPad Prism software. […] The IC50 was then used to calculate the Ki by using the Cheng-Prusoff equation: […]
This is normally true when the observed IC50 is […] the HSP-90 concentration. For a tight binding inhibitor, the following equation can be applied: […]
EL and ELo are the radioligand-HSP-90 complexes in the presence and absence of inhibitor, respectively. EL/ELo represents the fractional signal in the presence of inhibitor. Io, Eo, and Lo are the inhibitor, HSP-90, and radioligand concentrations, respectively.

| Structure (SMILES) | inhibition at 1 µM [%] | inhibition at 10 µM [%] |
| --- | --- | --- |
| O=C(c1ccc(O)cc1O)N1CCC2(CC1)OCc1ccccc12 [Example 80, 4-(1′H,3H-spiro[2-benzofuran-1,4′-piperidin]-1′-ylcarbonyl)benzene-1,3-diol] | 42 | 81.3 |
| O=C(c1ccc(O)cc1O)N1CCC(O)(c2ccc(Cl)c(C(F)(F)F)c2)CC1 [Example 78, 4-({4-[4-chloro-3-(trifluoromethyl)phenyl]-4-hydroxypiperidin-1-yl}carbonyl)benzene-1,3-diol] | 17.7 | 68.1 |
| COc1ccccc1-c1nnc([C@H]2CCCN2C(=O)c2ccc(O)cc2O)o1 [Example 92, 4-({2-[5-(2-methoxyphenyl)-1,3,4-oxadiazol-2-yl]pyrrolidin-1-yl}carbonyl)benzene-1,3-diol] | 9 | 22.4 |
| O=C(c1ccc(O)cc1O)N1CCCC(COc2cccc(Cl)c2)C1 (stereo not drawn) [Example 59, 4-({3-[(3-chlorophenoxy)methyl]piperidin-1-yl}carbonyl)benzene-1,3-diol] | 58.6 | 82.9 |
| Cc1ccc(OCC2CCCN(C(=O)c3ccc(O)cc3O)C2)cn1 (stereo not drawn) [Example 60, 4-[(3-{[(6-methylpyridin-3-yl)oxy]methyl}piperidin-1-yl)carbonyl]benzene 1,3-diol] | 77.6 | 88.1 |
| O=C(c1cc(-c2cc[nH]n2)ccc1O)N1Cc2ccccc2C1 [Example 33, 2-(1,3-dihydro-2H-isoindol-2-ylcarbonyl)-4-(1H-pyrazol-3-yl)phenol] | 2 | 20.9 |
| Cc1ccccc1C1(O)CCN(C(=O)c2ccc(O)cc2O)C1 (stereo not drawn) [Example 100, 4-{[3-hydroxy-3-(2-methylphenyl)pyrrolidin-1-yl]carbonyl}benzene-1,3-diol] | 35.9 | 79.1 |
| O=C(c1ccc(F)cc1O)N1Cc2ccccc2C1 [Example 29, 2-(1,3-dihydro-2H-isoindol-2-ylcarbonyl)-5-fluorophenyl] | 0 | 26.6 |
| O=C(c1ccc(O)cc1O)N1CCn2cnnc2C1 [Example 136, 4-(5,6-dihydro[1,2,4]triazolo[4,3-a]pyrazin-7(8H)-ylcarbonyl)benzene-1,3-diol] | 10.4 | 47.8 |
| O=C1CCCN1Cc1nnc2n1CCN(C(=O)c1ccc(O)cc1O)CC2 [Example 91, 1-{[7-(2,4-dihydroxybenzoyl)-6,7,8,9-tetrahydro-5H-[1,2,4]triazolo[4,3-d][1,4]diazepin-3-yl]methyl}pyrrolidin-2-one] | -7.3 | 12.2 |
| O=C(c1ccc(O)cc1O)N1CCC(c2ncccn2)CC1 [Example 86, 4-[(4-pyrimidin-2-ylpiperidin-1-yl)carbonyl]benzene-1,3-diol] | 23.9 | 59.9 |
| O=C(c1ccc(O)cc1O)N1CCN(c2cnccn2)CC1 [Example 111, 4-[(4-pyrazin-2-ylpiperazin-1-yl)carbonyl]benzene-1,3-diol] | 5.9 | 64.2 |
| O=C(c1ccc(O)cc1O)N1CCc2nnc(-c3cccc4ccccc34)n2CC1 [Example 134, (2,4-Dihydroxy-phenyl)-(3-naphthalen-1-yl-4,5,7,8-tetrahydro-1,2,3a,6-tetraaza-azulen-6-yl)-methanone] | 3.7 | 37.6 |
| O=C(c1ccc(O)cc1O)N1CCOCC(COCc2c(Cl)cccc2Cl)C1 (stereo not drawn) [Example 122, 4-[(6-{[(2,6-dichlorobenzyl)oxy]methyl}-1,4-oxazepan-4-yl)carbonyl]benzene-1,3-diol] | 48.2 | 79 |
| O=C(c1ccc(CO)cc1)N1Cc2ccccc2C1 [Example 184, [4-(1,3-dihydro-2H-isoindol-2-ylcarbonyl)phenyl] methanol] |  | 0 |
| O=C(c1ccc(O)cc1O)N1CCCC1 [Example 90, 4-(pyrrolidin-1-ylcarbonyl)benzene-1,3-diol] | 23.2 | 65.4 |
| O=C(c1ccc(O)cc1O)N1CCCC(CCOc2ccccc2)C1 (stereo not drawn) [Example 55, 4-{[3-(2-phenoxyethyl)piperidin-1-yl]carbonyl}benzene-1,3-diol] | 77.4 | 87 |
| O=C(c1ccc(O)cc1O)N1CCSC1 [Example 117, 4-(1,3-thiazolidin-3-ylcarbonyl)benzene-1,3-diol] | 65 | 89.2 |

| Structure (SMILES) | inhibition at 1 µM [%] | inhibition at 10 µM [%] |
| --- | --- | --- |
| C[C@H](c1cccc2ccccc12)N(C)C(=O)c1ccc(O)cc1O [Example 81, 2,4-dihydroxy-N-methyl-N-[1-(1-naphthyl)ethyl]benzamide] | 29 | 73.8 |
| O=C(c1ccc(O)cc1O)N1CCN(c2nc3ccc(Cl)cc3o2)CC1 [Example 125, 4-{[4-(6-chloro-1,3-benzoxazol-2-yl)piperazin-1-yl]carbonyl}benzene-1,3-diol] | 22.4 | 59.8 |
| COC(=O)C1CCN(C(=O)c2ccc(O)cc2O)C1 (stereo not drawn) [Example 94, methyl 1-(2,4-dihydroxybenzoyl)pyrrolidine-3-carboxylate] | 21.1 | 62.1 |
| O=C(c1ccc(O)cc1O)N1CCCC1c1ccc(Cl)cc1 (stereo not drawn) [Example 84, 4-{[2-(4-chlorophenyl)pyrrolidin-1-yl]carbonyl}benzene-1,3-diol] | 76.2 | 89.8 |
| CN(C(=O)c1ccc(O)cc1O)[C@@H]1CCCC[C@H]1O [Example 40, 2,4-dihydroxy-N-(2-hydroxycyclohexyl)-N-methylbenzamide] | 13.2 | 49.1 |
| O=C(c1ccc(O)cc1O)N1CCCCC1c1cccc(F)c1 (stereo not drawn) [Example 57, 4-{[2-(3-fluorophenyl)piperidin-1-yl]carbonyl}benzene-1,3-diol] | 73.7 | 88.2 |
| O=C(c1ccc(O)cc1O)N1CCC(Cc2ccc(Cl)cc2)CC1 [Example 43, 4-{[4-(4-chlorobenzyl)piperidin-1-yl]carbonyl}benzene-1,3-diol] | 35.9 | 73.6 |
| Cc1ccc(O)c(C(=O)N2Cc3ccccc3C2)c1 [Example 30, 2-(1,3-dihydro-2H-isoindol-2-ylcarbonyl)-4-methylphenyl] | 5.8 | 61.2 |
| CC1CCN(C(=O)c2ccc(O)cc2O)CC1 [Example 42, 4-[(4-methylpiperidin-1-yl)carbonyl]benzene-1,3-diol] | 59.9 | 86.5 |
| Cc1ccc(OC2CCN(C(=O)c3ccc(O)cc3O)CC2)cc1 [Example 74, 4-{[4-(4-methylphenoxy)piperidin-1-yl]carbonyl}benzene-1,3-diol] | 47.7 | 80.7 |
| O=C(c1ccc(O)cc1O)N1CCOCC2(CC(c3cc(F)cc(F)c3)=NO2)C1 (stereo not drawn) [Example 128, 4-{[3-(3,5-difluorophenyl)-1,7-dioxa-2,10-diazaspiro[4.6]undec-2-en-10-yl]carbonyl}benzene-1,3-diol] | 31.2 | 73.1 |
| Cc1nc2c(s1)CN(C(=O)c1ccc(O)cc1O)CC2 [Example 104, 4-[(2-methyl-6,7-dihydro[1,3]thiazolo[5,4-c]pyridin-5(4H)-yl)carbonyl]benzene-1,3-diol] | 33.9 | 74.3 |
| COc1ccc(CCN(C)C(=O)c2ccc(O)cc2O)cc1OC [Example 102, N-[2-(3,4-dimethoxyphenyl)ethyl]-2,4-dihydroxy-N-methylbenzamide] | 9.8 | 54.4 |
| COc1ccccc1OC1CCN(C(=O)c2ccc(O)cc2O)CC1 [Example 72, 4-{[4-(2-methoxyphenoxy)piperidin-1-yl]carbonyl}benzene-1,3-diol] | 13.2 | 62.4 |
| O=C(c1ccc(O)cc1O)N1CCOC(COc2ccc(F)cc2Cl)C1 (stereo not drawn) [Example 115, 4-({2-[(2-chloro-4-fluorophenoxy)methyl]morpholin-4-yl}carbonyl)benzene-1,3-diol] | 60.3 | 83.7 |
| CC(C)CN(C)C(=O)c1ccc(O)cc1O [Example 39, 2,4-dihydroxy-N-isobutyl-N-methylbenzamide] | 11.3 | 52.3 |
| Cc1cccc(N2CCN(C(=O)c3ccc(O)cc3O)CC2)n1 [Example 101, 4-{[4-(6-methylpyridin-2-yl)piperazin-1-yl]carbonyl}benzene-1,3-diol] | 21.8 | 70.2 |
